Consider 1 substance from patent US20230265438A1, “NUCLEIC ACIDS FOR INHIBITING EXPRESSION OF CNNM4 IN A CELL” (ASOCIACIÓN CENTRO DE INVESTIGACIÓN COOPERATIVA EN …, priority 2020, published 2023).

{VP} = (E)-vinylphosphonate; m = 2'-O-methyl; f = 2'-fluoro

The subject of data set [1] is CNNM4 mRNA. Kind of data set: CNNM4 mRNA in liver of wild-type mice after single subcutaneous dose (Examples 12-14). In kind it is in vivo, mouse. The note with it: wild-type C57BL/6 mice. On the procedure: (§1) Five- to seven-week old male C57BL/6 mice were treated with a single dose of 1 or 5 mg siRNA conjugate per kg body weight by subcutaneous injection. Control groups received a subcutaneous injection with the vehicle PBS. Two weeks after the treatment, liver samples were collected from all mice and snap frozen. RNA was extracted from liver samples and CNNM4 and Actin mRNA levels were determined by Taqman qRT-PCR. Values obtained for CNNM4 mRNA were normalized to values generated for the housekeeping gene Actin and related to mean of untreated sample (ut) set at 1-fold target gene expression. Each bar represents mean value from 6 animals +/-SD.
Five- to seven-week old male C57BL/6 mice were treated with a single dose of 0.3 or 1 mg siRNA conjugate per kg body weight by subcutaneous injection. Control groups received a subcutaneous injection with the vehicle PBS. Two weeks after the treatment, liver samples were collected from all mice and snap frozen. RNA was extracted from liver samples and CNNM4 and Actin mRNA levels were determined by Taqman qRT-PCR. Values obtained for CNNM4 mRNA were normalized to values generated for the housekeeping gene Actin and related to mean of untreated sample (ut) set at 1-fold target gene expression. Each bar represents mean value from 6 animals +/-SD.
as §1, with “1” for “1 or 5”, “Five” for “Two”, “PBS treated cohort (PBS)” for “untreated sample (ut)”

For data set [2], the system named is CNNM4 mRNA. Kind of data set: CNNM4 mRNA in liver of DIO-NASH mice (Example 24). The data set is classed as in vivo, mouse. The settings on record: 1 mg/kg or 5 mg/kg s.c. at 4, 8 and 12 weeks, liver 4 weeks after last treatment, FIG. 30. On the procedure:
5-week old C57BL/6 male mice were maintained on a DIO-NASH diet for about 32 weeks and randomized based on pre-liver biopsy fibrosis and steatosis score. Only animals with fibrosis score of ≥ 1 and steatosis score of ≥ 2 were included in the study. Animals were then maintained on DIO-NASH diet for another 16 weeks. At the 4 week, 8 week, and 12 week time points after the pre liver biopsy mice were treated with 1 mg/kg or 5 mg/kg EU422, respectively or with the vehicle PBS by subcutaneous injection. 4 weeks after the last treatment, liver samples were collected from all mice and snap frozen. RNA was extracted from liver samples and CNNM4 and HPRT mRNA levels were determined by Taqman qRT-PCR. Values obtained for CNNM4 mRNA were normalized to values generated for the house keeping gene HPRT and related to mean of untreated sample (ut) set at 1-fold target gene expression. Each bar represents mean value from 15 animals +/-SD.

Turning to “EU422: CNNM4 siRNA conjugate, duplex EU422A/EU422B; consists of SEQ ID NO: 461 and SEQ ID NO: 462 (chain 1 UGACAAAAGACACAAGAGU; chain 2 ACUCUUGUGUCUUUUGUCA; chain 1: sugars from the 5' end mfmfmfmfmfmfmfmfmfm, 5' {VP}, backbone not given here; chain 2: sugars from the 5' end m6 f3 m10, backbone not given here; undefined (ps2) end linkages, 5' conjugate ST23/ST41 on second strand, further chemistry not fully specified)”, the “CNNM4 mRNA levels in the liver” value is on record as “reduction of CNNM4 mRNA levels” in data set [1] (five weeks after single dose of 1 mg/kg s.c., FIG. 20); “reduction of CNNM4 mRNA levels” in data set [1] (two weeks after single dose of 0.3 or 1 mg/kg s.c., FIG. 19); “dose dependent reduction of CNNM4 mRNA levels” in data set [2].
